Laboratory results reported in patent US20260355182A1, “ISOQUINOLINE DERIVATIVE, SYNTHESIS METHOD THEREFOR, AND USE THEREOF” (Harbin Gloria Pharmaceuticals Co., Ltd., priority 2023, published 2026).

Legend:
SK-N-SH cells = test: Dose-effect relationship on cellular ATP levels in cultured SK-N-SH cells; format: cell-based, human
Procedure: SK-N-SH cells were seeded in a 6-well plate at a density of 6×10^4 per well. Cells were cultured for 12 hours under 5% O2, and the drug was added. Cells were harvested after 48 hours. Cellular ATP levels were measured using a Promega ATP assay kit. The experiment was repeated 5 times to 7 times.

Wild-type mice (C57BL/6) = test: Blood glucose in wild-type mice; format: in vivo; conditions: 0.1 mg/kg i.p., C57BL/6, fasted 6 hours after administration
Procedure: Wild-type mice (C57BL/6) aged 3 months to 4 months under normal feeding conditions were intraperitoneally injected with different drugs at 0.1 mg/kg. Mice injected with normal saline served as the control group. Mice were fasted for 6 hours after administration. Blood was collected from the tail of each mouse to measure blood glucose levels. Each group consisted of 9 mice.

[1] = system: MPTP-induced Parkinson's disease model mice; test: MPTP-induced mouse model of Parkinson's disease, rotarod and tyrosine hydroxylase Western blot; format: in vivo; conditions: terazosin 0.1 mg/Kg
Procedure: Male mice aged 3 months were used and fed normally. The acute MPTP modeling method (see Sonsalla P K, Heikkila R E. The influence of dose and dosing interval on MPTP-induced dopaminergic neurotoxicity in mice. Eur J Pharmacol 1986; 129(3): 339-45.) was employed. MPTP was injected intraperitoneally four times in total at a dose of 20 mg/kg body weight per injection, with a 2-hour interval between each injection. MPTP was dissolved in normal saline, and the control group received an equal dose of normal saline. T2 was dissolved in DMSO and diluted with normal saline to the desired concentration. Accordingly, equal doses of DMSO and normal saline were administered during the treatment. On the day of MPTP model establishment, mice were administered either T2 (treatment group) or DMSO (control group). Subsequently, mice in all groups were administered the corresponding drugs daily. Mouse behavior was tested using a rotarod (E103, UGO BASILE). First, mice were pre-trained for two consecutive days at a constant speed of 15 revolutions per minute (15 rpm) until they could stay on the rod for more than 60 seconds. On day 7 after MPTP injection, mice were tested on the rotarod in an accelerating mode (2 rpm to 45 rpm). The latency to fall from the rotarod was recorded, and the behavior was monitored by a camera. After the experiment, the mice were sacrificed, and the striatal brain tissue was harvested for Western blot assay. Tyrosine hydroxylase (TH) is a protein specifically expressed in dopaminergic neurons. Therefore, whether dopaminergic neurons were damaged can be determined by Western blot assay using an anti-TH antibody.

primary mouse neurons = test: Cellular status and glucose metabolism-related gene expression in primary mouse neurons; format: cell-based; conditions: normoxic, 72 h; TZ 10 μM, T6 10 PM (so in the source)
From the text: In FIG. 10, A) representative bright-field images show the cellular status of primary neurons after treatment. […] The analyzed genes included G6PD, HK2, LDHA, PDK1, PGK1, and SLC2A1/GLUT1. […] TZ treatment produced a similar but generally more moderate metabolic gene-response profile, including increased LDHA, PDK1, and SLC2A1/GLUT1 expression. […] Error bars indicate variation among measurements. […] The results support the use of T6 or related compounds as agents capable of regulating neuronal metabolic status and glucose metabolism-associated pathways.

[2] = system: MPTP-induced Parkinsonian mouse model; test: MPTP-induced Parkinsonian mouse model, rotarod and TH Western blot (T6); format: in vivo; conditions: TZ, MPTP 20 mg/kg
Procedure: Mice were administered MPTP at 20 mg/kg to induce Parkinsonian motor impairment and dopaminergic neuronal injury. […] In FIG. 13, A) motor coordination and endurance were assessed using the rotarod test and are expressed as the time remaining on the rotating rod. […] Actin was used as a loading control. […] Data are presented as mean±error bars, with individual points representing biological replicates. Significance of one-way ANOVA analysis is indicated as P<0.05 (*), P<0.01 (**), and P<0.001 (***).

db/db mice = test: Acute glucose-response assay in non-fasted db/db mice; format: in vivo; conditions: s.c., 2 h; TZ 0.5, liraglutide 0.6, T6 0.5 mg/Kg
Procedure: The db/db mice were used to evaluate the glucose-lowering activity of compound T6 in comparison with reference metabolic agents (TZ 0.5 mg/Kg, liraglutide 0.6 mg/Kg, T6 0.5 mg/Kg). In FIG. 15, A) for the acute glucose-response assay, drugs were administered to non-fasted db/db mice. Immediately after drug administration (s. c.), mice were deprived of food and water, and blood glucose levels were measured from tail blood samples 2 h later. The relative percentage change in blood glucose was calculated by comparing glucose levels before and after treatment in the same animal. […] HbA1c levels were then measured using a glycated hemoglobin A1c enzyme-linked immunosorbent assay, also referred to as a mouse HbA1c ELISA assay. […] Data are presented as mean±error bars, with individual circles representing individual animals. Statistical significance is indicated as P<0.001 (**) and P<0.0001 (***).

[3] = system: phosphoglycerate kinase 1 (Pgk1); conditions: cited from earlier work
[4] = system: mouse and rat models of Parkinson's disease, Alzheimer's disease, multiple system atrophy; conditions: cited from earlier work
diabetic patients = conditions: cited from earlier work
rats = conditions: combined administration of terazosin and propranolol; cited from earlier work
patients = conditions: cited from earlier work
Pgk1 = target: T1, Pgk1 (Homo sapiens, UniProt P00558); test: In vitro biochemical Pgk1 enzymatic activity assay (NADH production); set-up: GAPDH-coupled NADH assay; conditions: 1.6 mM GAP, 1 mM β-NAD, 1 mM ADP, 20 ng/μL GAPDH, pH 8.6, 10 minutes
T1 sequence (P00558 1-417): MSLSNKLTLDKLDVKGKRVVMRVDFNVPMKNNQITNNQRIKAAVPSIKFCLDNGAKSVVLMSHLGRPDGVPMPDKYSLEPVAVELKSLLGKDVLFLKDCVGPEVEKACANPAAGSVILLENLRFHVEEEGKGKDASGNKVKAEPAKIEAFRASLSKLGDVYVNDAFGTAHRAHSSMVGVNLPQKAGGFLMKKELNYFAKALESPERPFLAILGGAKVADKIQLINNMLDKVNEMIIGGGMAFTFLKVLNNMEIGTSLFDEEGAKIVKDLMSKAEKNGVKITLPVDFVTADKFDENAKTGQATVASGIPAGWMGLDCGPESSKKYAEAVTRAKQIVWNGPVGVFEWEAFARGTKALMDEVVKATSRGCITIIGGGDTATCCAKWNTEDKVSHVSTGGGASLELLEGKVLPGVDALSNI
Procedure: Human Pgk1 cDNA was cloned into the pEASYTM-E2 vector (TransGen Biotech) containing a His tag. Protein expression was induced in BL21(DE3) chemocompetent cells (TransGen Biotech) with 0.5 mM IPTG. After lysing cells in extraction buffer (20 mM sodium phosphate, 500 mM NaCl, 5 mM imidazole, 5% glycerol, protease inhibitor cocktail, pH 7.9), the supernatant was purified with nickel beads (AdarBiotech). The His-tagged Pgk1 was eluted with the elution buffer (20 mM sodium phosphate, 500 mM NaCl, 80 mM imidazole, protease inhibitor cocktail, pH 7.9). The activity of Pgk1 can be measured by monitoring the rate of NADH production, as NADH accumulated as the reaction proceeded. Purified Pgk1-His protein ([…]) was added to the reaction buffer (20 mM Tris, 100 mM NaCl, 2 mM DTT, 0.1 mM MgSO4, 10 mM NaHPO4, pH 8.6), and the substrates (1.6 mM GAP, 1 mM β-NAD, 1 mM ADP, 20 ng/μL GAPDH) was added. […] After reaction for 10 minutes at room temperature, the absorbance wavelength at 339 nm was measured using a microplate reader (Molecular Devices, SpectraMax i3x), and this wavelength corresponds to NADH levels.

Concentration for best activation of Pgk1 (Pgk1; role: activator): 1 µM
Effect on Pgk1 enzymatic activity at high concentration (Pgk1; role: inhibitor, 100 μM): can inhibit Pgk1 enzymatic activity
SMILES: COc1cc2nc(N3CCN(C(=O)C4CCCO4)CC3)nc(N)c2cc1OC (stereo not drawn) [Terazosin, terazosin]
Inhibition of cell growth (SK-N-SH cells; 50 μM, SK-N-SH cells): a tendency to inhibit cell growth
Optimal dose for cellular ATP levels (SK-N-SH cells; doses 5, 10 and 50 μM, 48 hours, 5% O2): 10 µM
Hypoglycemic effect (Wild-type mice (C57BL/6)): did not exhibit a hypoglycemic effect
Motor ability (rotarod) ([1]; day 7 after MPTP): improved the motor ability of mice
Tyrosine hydroxylase level / dopaminergic neurons ([1]; striatum, Western blot): exerted a protective effect on dopaminergic neurons
Neuronal cellular morphology/status (primary mouse neurons): detectable changes in neuronal cellular morphology/status
Rotarod performance (TZ) [2]: weaker improvement
Acute change in blood glucose (db/db mice): weaker acute effect
Effect on Pgk1, high concentration ([3]; high concentrations): can inhibit Pgk1
Effect on Pgk1, low concentration ([3]; low concentrations): can activate Pgk1
Binding to / activation of Pgk1 ([3]; previous studies): can activate Pgk1
Dissociation of ATP from Pgk1 protein ([3]; published studies): promoted the dissociation of ATP from the Pgk1 protein
Therapeutic and prophylactic effects [4]: exerts therapeutic and prophylactic effects
Blood glucose and lipid levels (diabetic patients): efficacy is extremely limited or ineffective
Blood glucose in rats (rats): did not affect blood glucose in rats
Side effects (patients): intraoperative floppy iris syndrome (IFIS), hypotension, fatigue, dizziness, syncope, and blurred vision
